Assay [1] addresses KRas WT (Homo sapiens, UniProt P01116). Put plainly: KRas binding assay (TR-FRET displacement), KRas WT. Particulars: TR-FRET displacement.
Assay [2] has as its target KRas G12S (Homo sapiens, UniProt P01116, G12S). The assay is classed as binding. Particulars: TR-FRET displacement, read-out: Binding to KRas (IC50 nM) G12S. In general terms: Time-resolved FRET reads energy transfer from a long-lived donor to a nearby acceptor.
Assay [3] addresses KRas G12C (Homo sapiens, UniProt P01116, G12C). The assay is classed as binding. The settings on record: TR-FRET displacement, read-out: Binding to KRas (IC50 nM) G12C.
The target in assay [4] is KRas Q61H (Homo sapiens, UniProt P01116, Q61H). Put plainly: KRas binding assay (TR-FRET displacement), KRas Q61H. Particulars: TR-FRET displacement.
The target of assay [5] is KRas G12V (Homo sapiens, UniProt P01116, G12V). Put plainly: biochemical. The settings on record: Binding to KRas (IC50 nM) G12V, TR-FRET displacement, KRas G12V.
Assay [6] addresses KRas G12D (Homo sapiens, UniProt P01116, G12D). The experiment in a line: biochemical. Particulars: Binding to KRas (IC50 nM) G12D, TR-FRET displacement, KRas G12D.
Assay [7] concerns ASPC1 cells. Put plainly: Inhibition of KRas-mediated phosphorylation of ERK (Cisbio HTRF pERK), ASPC1 cells. The assay is classed as cell-based. Particulars: Homo sapiens, ASPC1, 3 h, AsPC-1 cells; 3 hr compound incubation; Cisbio pERK HTRF.
The target of assay [8] is KRas G12R (Homo sapiens, UniProt P01116, G12R). Put plainly: biochemical. The settings on record: Binding to KRas (IC50 nM) G12R, TR-FRET displacement, KRas G12R.
Assay [9] has as its target KRas G12A (Homo sapiens, UniProt P01116, G12A). The assay is classed as binding. Particulars: TR-FRET displacement, read-out: Binding to KRas (IC50 nM) G12A.
Assay [10] relates to H727 cells. The experiment in a line: Inhibition of KRas-mediated phosphorylation of ERK (Cisbio HTRF pERK), H727 cells. Type of assay: cell-based. Particulars: Homo sapiens, NCI-H727, 3 h, 3 hr compound incubation, Cisbio pERK HTRF.
In assay [11] the target is KRas G13D (Homo sapiens, UniProt P01116, G13D). The assay is classed as binding. Particulars: TR-FRET displacement, read-out: Binding to KRas (IC50 nM) G13D.

Some results are limits rather than exact numbers.

KRas G12D, sequence (P01116 1-169 isoform P01116-2 G12D): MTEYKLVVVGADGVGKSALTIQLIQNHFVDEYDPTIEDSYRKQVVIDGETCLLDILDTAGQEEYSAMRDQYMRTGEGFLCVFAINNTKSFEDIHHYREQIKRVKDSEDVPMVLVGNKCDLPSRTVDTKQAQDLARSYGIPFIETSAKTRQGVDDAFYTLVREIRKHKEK
KRas G12S, sequence (P01116 1-169 isoform P01116-2 G12S): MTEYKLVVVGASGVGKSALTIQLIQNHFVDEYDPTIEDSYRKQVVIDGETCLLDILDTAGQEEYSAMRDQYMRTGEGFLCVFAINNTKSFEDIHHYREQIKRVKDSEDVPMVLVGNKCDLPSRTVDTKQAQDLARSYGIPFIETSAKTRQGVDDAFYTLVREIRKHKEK
KRas G12C, sequence (P01116 1-169 isoform P01116-2 G12C): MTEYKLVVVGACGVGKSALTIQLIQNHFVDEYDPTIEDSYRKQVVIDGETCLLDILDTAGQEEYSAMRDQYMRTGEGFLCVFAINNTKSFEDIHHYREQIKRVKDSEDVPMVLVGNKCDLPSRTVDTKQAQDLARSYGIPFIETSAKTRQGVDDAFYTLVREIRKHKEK
KRas WT, sequence (P01116 1-169 isoform P01116-2): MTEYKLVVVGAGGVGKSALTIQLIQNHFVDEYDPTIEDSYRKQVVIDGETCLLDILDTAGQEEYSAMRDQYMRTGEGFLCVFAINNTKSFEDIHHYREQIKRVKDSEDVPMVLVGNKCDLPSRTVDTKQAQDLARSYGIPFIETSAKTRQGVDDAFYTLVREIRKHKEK
KRas G12A, sequence (P01116 1-169 isoform P01116-2 G12A): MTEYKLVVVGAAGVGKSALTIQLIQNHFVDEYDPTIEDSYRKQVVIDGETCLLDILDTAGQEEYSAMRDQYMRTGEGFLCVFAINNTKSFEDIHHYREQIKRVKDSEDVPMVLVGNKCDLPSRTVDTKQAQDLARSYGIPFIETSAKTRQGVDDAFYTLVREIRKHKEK
KRas G12R, sequence (P01116 1-169 isoform P01116-2 G12R): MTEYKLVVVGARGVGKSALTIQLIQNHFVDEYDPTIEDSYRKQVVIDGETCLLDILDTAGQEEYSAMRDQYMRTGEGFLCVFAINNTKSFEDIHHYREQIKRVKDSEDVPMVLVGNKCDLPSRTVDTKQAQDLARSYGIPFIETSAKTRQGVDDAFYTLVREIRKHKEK
KRas Q61H, sequence (P01116 1-169 isoform P01116-2 Q61H): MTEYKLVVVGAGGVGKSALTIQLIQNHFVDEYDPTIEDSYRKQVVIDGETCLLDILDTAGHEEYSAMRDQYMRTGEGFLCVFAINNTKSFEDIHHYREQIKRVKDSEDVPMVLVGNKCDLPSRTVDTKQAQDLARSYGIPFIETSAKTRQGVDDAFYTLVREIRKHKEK
KRas G13D, sequence (P01116 1-169 isoform P01116-2 G13D): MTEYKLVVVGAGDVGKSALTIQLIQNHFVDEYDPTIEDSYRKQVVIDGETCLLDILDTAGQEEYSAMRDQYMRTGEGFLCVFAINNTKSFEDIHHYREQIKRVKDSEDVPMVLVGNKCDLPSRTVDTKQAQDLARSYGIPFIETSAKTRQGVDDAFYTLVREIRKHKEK
KRas G12V, sequence (P01116 1-169 isoform P01116-2 G12V): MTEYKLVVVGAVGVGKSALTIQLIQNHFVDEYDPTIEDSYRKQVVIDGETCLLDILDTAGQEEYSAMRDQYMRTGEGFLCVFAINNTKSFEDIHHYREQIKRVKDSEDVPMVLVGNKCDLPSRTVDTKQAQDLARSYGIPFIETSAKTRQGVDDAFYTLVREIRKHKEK

For orientation: IC50 means the point on the concentration scale where inhibition reaches its midpoint. As for `Cc1cc2[nH]ncc2c(N2CCc3c(nc(OCC45CCCN4CCC5)nc3N3CCCn4nc(C(=O)N(C)C)cc4C3)C2)c1C` [Example 451, 5-(7-(5,6-dimethyl-1H-indazol-4-yl)-2-((hexahydro-1H-pyrrolizin-7a-yl)methoxy)-5,6,7,8-tetrahydropyrido[3,4-d]pyrimidin-4-yl)-N,N-dimethyl-5,6,7,8-tetrahydro-4H-pyrazolo[1,5-a][1,4]diazepine-2-carboxamide], the IC50 stood at 777 nM in assay [1]; 243 nM in [2]; 209 nM in [3]; 1060 nM in assay [4]; 26 nM in [5]; 11 nM in [6]. Moreover, the half-inhibitory concentration (IC50) in assay [7] was more than 10000 nM; in [8], 62 nM; in [9], 387 nM; in assay [10], more than 10000 nM; in assay [11], 1160 nM.
Turning to `Cc1cc2[nH]ncc2c(N2CCc3c(nc(OCC45CCCN4CCC5)nc3N3CCCC4(CNS(=O)(=O)N4)C3)C2)c1C` (stereo not drawn) [Example 452, 7-(7-(5,6-dimethyl-1H-indazol-4-yl)-2-((hexahydro-1H-pyrrolizin-7a-yl)methoxy)-5,6,7,8-tetrahydropyrido[3,4-d]pyrimidin-4-yl)-2-thia-1,3,7-triazaspiro[4.5]decane 2,2-dioxide], the IC50 in assay [1] worked out at 7 nM; in [2], 8 nM; in assay [3], 8 nM; in [4], 7 nM; in assay [5], 6 nM; in [6], 4 nM. Further, the half-maximal inhibitory concentration (IC50) was 3000 nM in assay [7]; 9 nM in assay [8]; 9 nM in assay [9]; more than 10000 nM in assay [10]; 8 nM in assay [11].
For the compound `Cc1cc2[nH]ncc2c(N2CCc3c(nc(OCC45CCCN4CCC5)nc3N3CCC[C@]4(C3)NC(=O)NC4=O)C2)c1C` [Example 455, (R)-7-(7-(5,6-dimethyl-1H-indazol-4-yl)-2-((hexahydro-1H-pyrrolizin-7a-yl)methoxy)-5,6,7,8-tetrahydropyrido[3,4-d]pyrimidin-4-yl)-1,3,7-triazaspiro[4.5]decane-2,4-dione], the IC50 came out at 4 nM in [1]; 4 nM in assay [2]; 3 nM in assay [3]; 3 nM in assay [4]; 2 nM in [5]; 4 nM in [6]. Besides, the concentration for half-maximal inhibition (IC50) in assay [7] is more than 10000 nM; in assay [8], less than 2 nM; in assay [9] it was 4 nM; in [10], more than 10000 nM; in assay [11], 4 nM.
On to `Cc1cc2[nH]ncc2c(N2CCc3c(nc(OCC45CCCN4CCC5)nc3N3CCCC4(CC(=O)N4)C3)C2)c1C` (stereo not drawn) [Example 456, 6-(7-(5,6-dimethyl-1H-indazol-4-yl)-2-((hexahydro-1H-pyrrolizin-7a-yl)methoxy)-5,6,7,8-tetrahydropyrido[3,4-d]pyrimidin-4-yl)-1,6-diazaspiro[3.5]nonan-2-one], for which the half-inhibitory concentration (IC50) in [1] stood at 53 nM; in assay [2], 33 nM; in [3], 32 nM; in assay [4], 48 nM; in assay [5], 18 nM; in assay [6], 38 nM. Besides, the half-inhibitory concentration (IC50) in assay [7] is more than 10000 nM; in assay [8], 17 nM; in assay [9], 35 nM; in assay [10], more than 10000 nM; in [11] it was 59 nM.
Take `Cc1cc2[nH]ncc2c(N2CCc3c(nc(OCC45CCCN4CCC5)nc3N3CC4CC(O)C(C4)C3)C2)c1C` (stereo not drawn) [Example 457, 3-(7-(5,6-dimethyl-1H-indazol-4-yl)-2-((hexahydro-1H-pyrrolizin-7a-yl)methoxy)-5,6,7,8-tetrahydropyrido[3,4-d]pyrimidin-4-yl)-3-azabicyclo[3.2.1]octan-6-ol]: the IC50 was determined as 1590 nM in [1]; 1270 nM in assay [2]; 1910 nM in assay [3]; 2190 nM in assay [4]; 805 nM in assay [5]; 3560 nM in assay [6]. Also, the IC50 was more than 10000 nM in assay [7]; 692 nM in assay [8]; 1250 nM in [9]; more than 10000 nM in assay [10]; 1870 nM in assay [11].
Regarding `Cc1cc2[nH]ncc2c(N2CCc3c(nc(OCC45CCCN4CCC5)nc3N3CC4C(=O)NC(=O)C4C3)C2)c1C` (stereo not drawn) [Example 458, 5-(7-(5,6-dimethyl-1H-indazol-4-yl)-2-((hexahydro-1H-pyrrolizin-7a-yl)methoxy)-5,6,7,8-tetrahydropyrido[3,4-d]pyrimidin-4-yl)tetrahydropyrrolo[3,4-c]pyrrole-1,3(2H,3aH)-dione], the IC50 in [1] amounted to 143 nM; in assay [2], 52 nM; in assay [3] it was 153 nM; in [4], 179 nM; in [5] it was 76 nM; in assay [6], 48 nM. The concentration for half-maximal inhibition (IC50) in [7] was more than 10000 nM; in assay [8], 145 nM; in assay [9], 148 nM; in assay [10], more than 10000 nM; in assay [11], 168 nM.
As for `Cc1cc2[nH]ncc2c(N2CCc3c(nc(OCC45CCCN4CCC5)nc3N3CCCC4(C3)NC(=O)NC4=O)C2)c1C` (stereo not drawn) [Example 459, 7-(7-(5,6-dimethyl-1H-indazol-4-yl)-2-((hexahydro-1H-pyrrolizin-7a-yl)methoxy)-5,6,7,8-tetrahydropyrido[3,4-d]pyrimidin-4-yl)-1,3,7-triazaspiro[4.5]decane-2,4-dione], the IC50 is 10 nM in assay [1]; 11 nM in assay [2]; 8 nM in assay [3]; 8 nM in [4]; 8 nM in [5]; 16 nM in assay [6]. Moreover, the IC50 was more than 10000 nM in assay [7]; 11 nM in assay [8]; 11 nM in assay [9]; more than 10000 nM in assay [10]; 9 nM in assay [11].
As for `Cc1cc2[nH]ncc2c(N2CCc3c(nc(OCC45CCCN4CCC5)nc3N3CCOCC(C)(O)C3)C2)c1C` (stereo not drawn) [Example 460, 4-(7-(5,6-dimethyl-1H-indazol-4-yl)-2-((hexahydro-1H-pyrrolizin-7a-yl)methoxy)-5,6,7,8-tetrahydropyrido[3,4-d]pyrimidin-4-yl)-6-methyl-1,4-oxazepan-6-ol], the half-maximal inhibitory concentration (IC50) in [1] came out at 137 nM; in [2], 173 nM; in assay [3], 146 nM; in [4] it was 188 nM; in [5], 108 nM; in assay [6] it was 67 nM. The IC50 amounted to 1620 nM in [7]; 216 nM in assay [8]; 142 nM in assay [9]; 5360 nM in assay [10]; 169 nM in [11].
In the case of `Cc1cc2[nH]ncc2c(N2CCc3c(nc(OCC45CCCN4CCC5)nc3N3CCCC4(CNC(=O)N4)C3)C2)c1C` (stereo not drawn) [Example 461, 7-(7-(5,6-dimethyl-1H-indazol-4-yl)-2-((hexahydro-1H-pyrrolizin-7a-yl)methoxy)-5,6,7,8-tetrahydropyrido[3,4-d]pyrimidin-4-yl)-1,3,7-triazaspiro[4.5]decan-2-one], the 50% inhibitory concentration (IC50) was found to be 23 nM in assay [1]; 23 nM in assay [2]; 19 nM in assay [3]; 26 nM in assay [4]; 12 nM in assay [5]; 11 nM in [6]. In addition, the IC50 in assay [7] was more than 10000 nM; in [8] it was 22 nM; in assay [9], 22 nM; in [10] it was more than 10000 nM; in assay [11], 26 nM.
